Assay results reported in publication PMC3010111 (Molecular Systems Biology, 2010).

Target: T1, AroB (dehydroquinate synthase) (Escherichia coli, UniProt P07639)
T1 sequence (P07639 1-362): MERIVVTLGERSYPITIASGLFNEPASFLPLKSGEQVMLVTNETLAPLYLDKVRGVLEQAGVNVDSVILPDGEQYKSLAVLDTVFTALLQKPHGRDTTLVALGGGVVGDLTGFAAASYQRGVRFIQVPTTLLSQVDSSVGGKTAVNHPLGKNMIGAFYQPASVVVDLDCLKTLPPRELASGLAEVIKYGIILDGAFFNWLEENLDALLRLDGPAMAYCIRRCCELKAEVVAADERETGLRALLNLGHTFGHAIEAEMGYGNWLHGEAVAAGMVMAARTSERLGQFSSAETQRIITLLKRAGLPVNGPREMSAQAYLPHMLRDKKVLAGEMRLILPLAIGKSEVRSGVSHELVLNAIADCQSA
Test: NAD+ reduction
Format: biochemical
Details: 2 mM NAD+, 100 mM Tris–HCl pH 7.5, 10°C; 11 μM AroB

**Q.** For `O=C(O)[C@H](O)[C@H](O)COP(=O)(O)O` [4PE], which “NAD+ reduction; single turnover (data not shown)” value is on record?
**A.** AroB also oxidizes 4PE, but carries out only a single turnover (data not shown).
